The values that follow come from US12180220B2, “Heteroaryl modulators of RAS GTPase” (Tosk, Inc., priority 2020, dated 2024).

The test deals with SW620 Cell Lines. The test can be described thus: Cell proliferation / cytotoxicity assay (CellTiter-Glo 2.0). The conditions noted are these: Homo sapiens, SW-620; 72 hours incubation, luminescence (CellTiter-Glo 2.0), 2-fold dilutions starting at 50 μM. It is filed as cell-based. The procedure:
Compounds are assayed for inhibition of cell proliferation and killing cancer cells. Cytotoxicity assays are conducted according to the following general procedure. […] cells (ATCC CCL-227) are maintained in DMEM Low Glucose (Corning 10-014-CV) media supplemented with 10% fetal bovine serum and 1% PenStrep and grown at 37° C. in 5% CO2. Cells are plated into 96 well flat bottom plates (2 million/plate, ˜20,000/well, 200 μL media/well). The cells are allowed to settle and adhere to the plate bottom overnight. Compounds are diluted in media from a 10 mM stock solution starting at 50 μM, using 2-fold dilutions, in a column in a 96-well plate. Media is removed from the plate containing cells and replaced with media containing diluted compounds. Plates are incubated 72 hours at 37° C. in 5% CO2. Plates are allowed to come to room temperature and 100 μL CellTiter-Glo 2.0 reagent (Promega, G924C) is added at room temperature. Plates are shaken for 2 minutes, then allowed to stand for 15 minutes. Luminescence is read with FLx800 (BioTek Instruments). Data is plotted with GraphPad Prizm 8.0.
(Cellular ATP, detected with luciferase, serves as a proxy for viable cell number.)
As for `Cc1nc(N[C@@H]2CCN(C(=O)OC(C)(C)C)[C@@H](C)C2)nc2ccc(-c3ccnc4c3OCCO4)cc12` [Compound 1A], the IC50 (usually the concentration that inhibits the measured activity by half) was less than 5 µM. The same measure for `Cc1nc(NC2CCC(C(=O)NCc3ccc(Cl)cc3)CC2)nc2ccc(-c3cccc4c3OCCO4)cc12` (stereo not shown) [Compound 1B]: 5 to 10 µM; for `Cc1ccc2ccc(F)c(-c3ccc4nc(NC5CCN(C(=O)OC(C)(C)C)CC5)nc(C)c4c3)c2n1` [Compound 1C]: less than 5 µM.

For the molecule `Cc1nc(N[C@@H]2CCN(C(=O)OC(C)(C)C)[C@H](C)C2)nc2ccc(-c3ccnc4c3OCCO4)cc12` [Compound 2A], the 50% inhibitory concentration (IC50) is less than 5 µM. The result for `Cc1nc(N[C@H]2CC[C@@H](C(=O)NC3CCCCC3)CC2)nc2ccc(-c3cccc4c3OCCO4)cc12` [Compound 2B] reads 5 to 10 µM; that for `Cc1ccc2ccc(F)c(-c3ccc4nc(NC5CCN(C(=O)OC(C)C)CC5)nc(C)c4c3)c2n1` [Compound 2C], 5 to 10 µM. `Cc1nc(N[C@H]2CC[C@@H](NC(=O)OC(C)(C)C)CC2)nc2ccc(-c3ccnc4c3OCCO4)cc12` [Compound 3A] came in with an IC50 of less than 5 µM.

In turn, `Cc1nc(N[C@H]2CC[C@@H](C(=O)NC(C)C)CC2)nc2ccc(-c3cccc4c3OCCO4)cc12` [Compound 3B] had an IC50 of 5 to 10 µM. The same measure for `Cc1nc(N[C@H]2CC[C@H](NC(=O)OC(C)(C)C)CC2)nc2ccc(-c3ccnc4c3OCCO4)cc12` [Compound 4A]: less than 5 µM; for `Cc1nc(NC2CCN(C(=O)OC(C)(C)C)CC2)nc2ccc(-c3ccnc4ccccc34)cc12` [Compound 4C]: 5 to 10 µM. The molecule `Cc1nc(N[C@H]2C[C@@H](NC(=O)OC(C)(C)C)C2)nc2ccc(-c3ccnc4c3OCCO4)cc12` [Compound 5A] yielded an IC50 of less than 5 µM. The result for `Cc1nc(NC2CCN(C(=O)OC(C)(C)C)CC2)nc2ccc(-c3cccc4c3CCCC4)cc12` [Compound 5B] reads 5 to 10 µM; that for `Cc1ccc2ccc(F)c(-c3ccc4nc(N[C@H]5CC[C@@H](NC(=O)OC(C)(C)C)CC5)nc(C)c4c3)c2n1` [Compound 5C], 5 to 10 µM. The same measure for `Cc1nc(N[C@H]2C[C@H](NC(=O)OC(C)(C)C)C2)nc2ccc(-c3ccnc4c3OCCO4)cc12` [Compound 6A]: less than 5 µM; for `Cc1nc(N[C@H]2CC[C@@H](NC(=O)OC(C)(C)C)CC2)nc2ccc(-c3cccc4c3CCCC4)cc12` [Compound 6B]: 5 to 10 µM.

The molecule `Cc1nc(O[C@H]2CC[C@@H](NC(=O)OC(C)(C)C)CC2)nc2ccc(-c3ccnc4c3OCCO4)cc12` [Compound 7A] returned an IC50 of less than 5 µM.

Molecule `Cc1nc(N[C@H]2CC[C@H](NC(=O)OC(C)(C)C)CC2)nc2ccc(-c3cccc4c3CCCC4)cc12` [Compound 7B] registered an IC50 of 5 to 10 µM. The same measure for `Cc1nc(N[C@H]2CC[C@@H](NC(=O)OC(C)(C)C)CC2)nc2ccc(-c3cccc4c3OCC(=O)N4)cc12` [Compound 7C]: 5 to 10 µM; for `Cc1nc(N[C@H]2CC[C@@H](NC(=O)c3ccc(Cl)cc3)CC2)nc2ccc(-c3ccnc4c3OCCO4)cc12` [Compound 8A]: less than 5 µM; for `Cc1nc(N[C@@H]2C[C@H]3CC[C@@H](C2)N3C(=O)c2ccc(Cl)cc2)nc2ccc(-c3ccnc4c3OCCO4)cc12` [Compound 8C]: less than 5 µM. `Cc1nc(N[C@H]2CC[C@@H](NC(=O)OC(C)(C)C)CC2)nc2ccc(-c3ccnc4c3OCCO4)c(F)c12` [Compound 9A] came in with an IC50 of less than 5 µM. The same measure for `Cc1nc(N[C@H]2CC[C@@H](NC(=O)OC(C)(C)C)CC2)nc2ccc(-c3c(Cl)cnc4c3OCCO4)cc12` [Compound 10A]: less than 5 µM; for `Cc1nc(N[C@H]2CCC[C@@H](NC(=O)OC(C)(C)C)C2)nc2ccc(-c3ccnc4c3OCCO4)cc12` [Compound 11A]: less than 5 µM; for `Cc1nc(N[C@H]2CC[C@@H](NC(=O)OC(C)(C)C)CC2)nc2ccc(-c3cc[n+]([O-])c4c3OCCO4)cc12` [Compound 12A]: 5 to 10 µM.

The molecule `Cc1nc(NC2CCN(Cc3ccc(Cl)cc3)CC2)nc2ccc(-c3ccnc4c3OCCO4)cc12` [Compound 13A] showed a half-inhibitory concentration (IC50) of less than 5 µM. The result for `Cc1nc(NC2CCN(C(=O)c3ccc(Cl)cc3)CC2)nc2ccc(-c3ccnc4c3OCCO4)cc12` [Compound 14A] reads less than 5 µM; that for `Cc1nc(N[C@H]2CCN(Cc3ccc(Cl)cc3)[C@@H](C)C2)nc2ccc(-c3ccnc4c3OCCO4)cc12` [Compound 15A], less than 5 µM; that for `Cc1nc(N[C@H]2CC[C@@H](NC3Cc4cccc(Cl)c4C3)CC2)nc2ccc(-c3ccnc4c3OCCO4)cc12` (stereo partly shown) [Compound 16A], less than 5 µM.
